Experimental data published in patent publication US20210101881A1 (Ancureall Pharmaceutical (Shanghai) Co., Ltd., priority 2018, published 2021).

Test system: human MOLM13 leukemia cells
Test: In vivo growth inhibition test of tumor cell (MOLM13 subcutaneous model)
Protocol: Test Example 4. In Vivo Growth Inhibition Test of Tumor Cell
Experimental animals: Bab/c immunodeficiency mice, female, 6 weeks old (weighing about 20 grams), purchased from Shanghai Sippr-BK laboratory animal Co. Ltd., raised by the Animal Center of Shanghai Fudan University, approved by the Ethics Committee of Shanghai Fudan University. The breeding environment is SPF level.
Test samples: Compound 140 of the present invention (purity: 99%), solid powder, stored at 4-8° C.
Cell and animal modelling: human MOLM13 leukemia cells were cultured in RPMI 1640 medium containing 10% fetal bovine serum. Cells in the exponential growth phase were collected (centrifuge at 1700 rpm for 3 minutes), washed once with 1×PBS, and resuspended to obtain a final concentration of 5×10^7/ml cells. Single-point inoculation of 0.1 ml was carried out subcutaneously on the right back.
When the average tumor volume reached ˜400 mm^3, the mice were randomly grouped according to tumor size. The test was divided into solvent control group and administration group, with 3 mice in each group. 0.01 ml of solution per gram of mouse weight was intragastrically administered (p.o.) once a day. The tumor was measured three times a week. Calculation formula for tumor volume: long diameter×short diameter^2/2. When the tumor volume of the control group reached 2000 mm^3, the experiment was ended, and molecular pathological analysis of tumor tissue was performed. The efficacy was evaluated based on the relative tumor growth inhibition rate (TGI), and the safety was evaluated based on the change of animal weight.
Formulation of test samples: An appropriate amount of compound 140 was weighed. An appropriate amount of ultrapure water was added and mixed well.
Methanesulfonic acid was then added to obtain a clear solution, and 4M NaOH was added dropwise to adjust pH to 4.3. Ultrapure water was added to obtain a constant volume and a final concentration of 5 mg/ml.
The solvent control group was an aqueous methanesulfonic acid solution (pH 4.3).
T/C % represents the relative tumor growth rate, that is, the percentage ratio of relative tumor volume or tumor weight of the administration group to that of the control group at a certain time point. T and C respectively represent the relative tumor volume (RTV) of the administration group and the control group at a certain time point. T/C % is calculated as follows:
wherein TRTV: the average RTV of the administration group; CRTV: the average RTV of the solvent control group: RTV=Vt/V0, V0 represents the tumor volume of the animal at the time of grouping, and Vt represents the tumor volume of the animal after administration.
Statistical analysis: All test results were expressed as mean tumor volume±SEM (mean standard error). The tumor volume data on Day 9 after the start of administration was selected for statistical analysis among different groups. The significant difference between the relative tumor volume of the administration group and that of the control group was determined by independent sample T test method. All data were analyzed with SPSS 18.0. p<0.05 means that there is a significant difference.

[1] = MOLM13 model, 50 mg/kg p.o. once a day, Day 9 after the start of administration

NC(=O)c1cn(-c2nc(Nc3cccc(N4CCN(C5CCOCC5)CC4)c3)ncc2F)c2ccccc12 [Compound 140, 1-(5-fluoro-2-{3-[4-(tetrahydro-pyran-4-yl)-piperazin-1-yl]-phenylamino}-pyrimidin-4-yl)-1H-indole-3-carboxamide]
tolerability of the drug (50 mg/kg p.o. once a day): well tolerated
weight of the mouse during the administration (50 mg/kg p.o. once a day): remained stable
TGI (%) [1]: 91.29%
TIC (%) [1]: 8.71%
Tumor volume (mm^3) (MOLM13 model, 50 mg/kg p.o. once a day, Day 9 after the start of administration, mean ± SEM): 164.8 ± 12 mm^3
growth of human acute myeloid leukemia MOLM13 cells in vivo (dose of 50 mg/kg): effectively inhibit the growth
